Counter-ions that a name gives are not always drawn. Like-named read-outs stand apart in the source and are kept apart here.
Key:
[1] = target: D2 receptor (Homo sapiens, UniProt P14416); settings: MTA = Missed 50% of threshold inhibition; Ki without SEM within 20% of mean
[2] = target: histamine H1 receptor (Homo sapiens, UniProt P35367); settings: MTA = Missed 50% of threshold inhibition; Ki without SEM within 20% of mean
[3] = target: 5-HT2B receptor (Homo sapiens, UniProt P41595); settings: MTA = Missed 50% of threshold inhibition; Ki without SEM within 20% of mean
[4] = target: D3 receptor (Homo sapiens, UniProt P35462); settings: MTA = Missed 50% of threshold inhibition; Ki without SEM within 20% of mean
[5] = target: 5-HT1A receptor (Homo sapiens, UniProt P08908)
[6] = target: 5-HT2A receptor (Homo sapiens, UniProt P28223)
[7] = target: SERT (Homo sapiens, UniProt P31645); settings: MTA = Missed 50% of threshold inhibition; Ki without SEM within 20% of mean
[8] = target: 5-HT7 receptor (Homo sapiens, UniProt P34969)
[9] = target: 5-HT2C receptor (Homo sapiens, UniProt P28335); settings: MTA = Missed 50% of threshold inhibition; Ki without SEM within 20% of mean
[10] = MTA = Missed 50% of threshold inhibition, Ki without SEM within 20% of mean

5-HT2B receptor, sequence (P41595 whole entry): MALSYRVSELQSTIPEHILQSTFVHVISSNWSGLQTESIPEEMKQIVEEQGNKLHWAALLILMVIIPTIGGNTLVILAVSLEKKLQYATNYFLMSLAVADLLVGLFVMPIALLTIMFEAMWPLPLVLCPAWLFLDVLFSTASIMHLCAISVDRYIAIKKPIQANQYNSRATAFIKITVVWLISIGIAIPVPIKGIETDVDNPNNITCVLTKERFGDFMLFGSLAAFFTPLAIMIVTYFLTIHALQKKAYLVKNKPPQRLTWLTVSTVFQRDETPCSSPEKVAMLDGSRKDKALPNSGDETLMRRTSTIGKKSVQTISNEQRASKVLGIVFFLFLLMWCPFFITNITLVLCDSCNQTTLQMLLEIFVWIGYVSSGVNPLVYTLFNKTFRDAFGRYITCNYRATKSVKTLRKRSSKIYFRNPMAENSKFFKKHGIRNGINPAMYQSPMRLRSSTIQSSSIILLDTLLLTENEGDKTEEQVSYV
SERT, sequence (P31645 whole entry, species assumed): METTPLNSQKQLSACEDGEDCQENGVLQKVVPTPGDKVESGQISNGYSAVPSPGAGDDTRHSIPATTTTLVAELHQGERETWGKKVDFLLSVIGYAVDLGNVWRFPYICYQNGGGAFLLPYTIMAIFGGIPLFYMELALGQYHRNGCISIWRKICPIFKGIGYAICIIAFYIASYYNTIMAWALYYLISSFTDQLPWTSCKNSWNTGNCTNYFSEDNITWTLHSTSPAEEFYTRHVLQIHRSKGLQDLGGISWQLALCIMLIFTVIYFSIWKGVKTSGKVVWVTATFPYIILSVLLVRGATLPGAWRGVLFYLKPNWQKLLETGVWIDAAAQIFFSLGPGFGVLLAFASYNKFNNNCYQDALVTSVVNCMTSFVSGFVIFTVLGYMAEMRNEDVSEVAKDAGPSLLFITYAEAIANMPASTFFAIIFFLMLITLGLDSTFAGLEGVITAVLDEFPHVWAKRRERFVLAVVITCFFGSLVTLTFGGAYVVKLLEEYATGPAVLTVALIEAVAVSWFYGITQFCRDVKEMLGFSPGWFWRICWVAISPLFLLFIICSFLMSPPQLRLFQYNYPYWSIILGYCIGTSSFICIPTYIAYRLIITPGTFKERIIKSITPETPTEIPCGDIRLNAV
5-HT2C receptor, sequence (P28335 33-458): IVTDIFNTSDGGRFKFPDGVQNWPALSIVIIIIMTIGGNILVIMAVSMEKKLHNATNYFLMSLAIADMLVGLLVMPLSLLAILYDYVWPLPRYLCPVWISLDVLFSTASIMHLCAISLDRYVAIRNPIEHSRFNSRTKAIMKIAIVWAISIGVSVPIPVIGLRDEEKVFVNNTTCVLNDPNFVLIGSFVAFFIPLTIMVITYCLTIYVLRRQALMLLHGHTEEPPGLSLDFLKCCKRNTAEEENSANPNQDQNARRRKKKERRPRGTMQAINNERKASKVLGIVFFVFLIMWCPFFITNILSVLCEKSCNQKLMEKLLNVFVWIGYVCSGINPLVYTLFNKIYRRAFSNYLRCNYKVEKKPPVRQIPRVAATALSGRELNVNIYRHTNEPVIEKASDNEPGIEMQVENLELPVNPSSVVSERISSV
D2 receptor, sequence (P14416 whole entry): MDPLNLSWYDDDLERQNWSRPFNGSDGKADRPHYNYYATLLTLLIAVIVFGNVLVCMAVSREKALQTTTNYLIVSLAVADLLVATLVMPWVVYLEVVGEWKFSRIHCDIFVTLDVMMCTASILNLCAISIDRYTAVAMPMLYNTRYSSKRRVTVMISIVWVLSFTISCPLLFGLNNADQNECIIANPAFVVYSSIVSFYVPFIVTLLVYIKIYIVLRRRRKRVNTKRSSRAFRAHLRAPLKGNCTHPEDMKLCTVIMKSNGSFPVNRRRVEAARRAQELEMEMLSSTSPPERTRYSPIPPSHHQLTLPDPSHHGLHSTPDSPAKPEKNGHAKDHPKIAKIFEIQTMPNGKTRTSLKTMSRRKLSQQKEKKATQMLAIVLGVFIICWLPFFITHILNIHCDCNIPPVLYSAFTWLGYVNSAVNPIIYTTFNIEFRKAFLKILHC
5-HT1A receptor, sequence (P08908 whole entry): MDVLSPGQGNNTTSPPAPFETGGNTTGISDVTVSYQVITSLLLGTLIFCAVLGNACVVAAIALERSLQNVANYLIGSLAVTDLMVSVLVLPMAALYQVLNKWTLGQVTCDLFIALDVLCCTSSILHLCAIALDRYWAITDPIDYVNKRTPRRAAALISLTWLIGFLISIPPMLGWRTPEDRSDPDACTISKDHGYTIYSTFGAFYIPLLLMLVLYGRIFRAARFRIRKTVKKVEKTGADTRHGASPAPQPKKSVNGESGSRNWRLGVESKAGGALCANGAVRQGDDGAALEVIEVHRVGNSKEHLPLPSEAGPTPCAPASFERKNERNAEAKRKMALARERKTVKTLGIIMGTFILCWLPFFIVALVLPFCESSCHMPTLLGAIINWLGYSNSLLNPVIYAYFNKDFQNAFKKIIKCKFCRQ
5-HT2A receptor, sequence (P28223 whole entry): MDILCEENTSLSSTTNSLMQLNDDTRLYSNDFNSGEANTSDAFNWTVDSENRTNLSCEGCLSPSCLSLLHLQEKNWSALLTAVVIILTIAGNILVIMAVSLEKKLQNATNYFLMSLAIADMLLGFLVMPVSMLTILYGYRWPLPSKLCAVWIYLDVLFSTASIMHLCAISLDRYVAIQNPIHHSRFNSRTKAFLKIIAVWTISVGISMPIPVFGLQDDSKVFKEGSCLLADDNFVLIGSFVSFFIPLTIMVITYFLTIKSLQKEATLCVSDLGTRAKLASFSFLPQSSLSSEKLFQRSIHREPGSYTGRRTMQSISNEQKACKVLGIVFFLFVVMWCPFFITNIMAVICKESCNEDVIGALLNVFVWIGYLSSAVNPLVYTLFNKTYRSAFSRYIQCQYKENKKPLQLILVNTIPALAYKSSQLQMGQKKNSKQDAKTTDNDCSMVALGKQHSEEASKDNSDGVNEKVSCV
5-HT7 receptor, sequence (P34969 whole entry): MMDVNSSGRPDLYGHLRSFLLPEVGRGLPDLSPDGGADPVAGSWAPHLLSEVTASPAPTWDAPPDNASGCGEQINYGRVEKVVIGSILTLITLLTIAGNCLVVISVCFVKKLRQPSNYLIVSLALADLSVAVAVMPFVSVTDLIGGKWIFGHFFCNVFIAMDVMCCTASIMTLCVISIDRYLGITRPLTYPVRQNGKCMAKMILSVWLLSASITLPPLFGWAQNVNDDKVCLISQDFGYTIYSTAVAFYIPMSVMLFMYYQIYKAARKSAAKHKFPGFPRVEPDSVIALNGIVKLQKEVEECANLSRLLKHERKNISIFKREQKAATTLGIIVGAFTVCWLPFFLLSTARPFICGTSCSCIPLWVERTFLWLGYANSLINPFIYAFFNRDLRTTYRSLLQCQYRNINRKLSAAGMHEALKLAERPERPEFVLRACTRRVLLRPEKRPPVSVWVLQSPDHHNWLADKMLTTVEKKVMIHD
histamine H1 receptor, sequence (P35367 whole entry, species assumed): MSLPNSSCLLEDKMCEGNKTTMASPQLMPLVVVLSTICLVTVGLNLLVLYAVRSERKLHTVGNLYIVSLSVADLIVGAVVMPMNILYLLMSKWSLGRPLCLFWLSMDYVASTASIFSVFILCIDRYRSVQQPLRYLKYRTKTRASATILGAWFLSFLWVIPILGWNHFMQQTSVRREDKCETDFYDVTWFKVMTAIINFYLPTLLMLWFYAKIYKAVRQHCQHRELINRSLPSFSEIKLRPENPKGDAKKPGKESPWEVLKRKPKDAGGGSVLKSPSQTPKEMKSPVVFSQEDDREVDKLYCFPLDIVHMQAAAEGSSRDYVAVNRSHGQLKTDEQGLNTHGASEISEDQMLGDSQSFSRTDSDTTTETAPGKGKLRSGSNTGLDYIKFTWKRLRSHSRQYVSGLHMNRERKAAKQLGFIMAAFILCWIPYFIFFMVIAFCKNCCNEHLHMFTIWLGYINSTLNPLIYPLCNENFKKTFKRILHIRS
D3 receptor, sequence (P35462 whole entry): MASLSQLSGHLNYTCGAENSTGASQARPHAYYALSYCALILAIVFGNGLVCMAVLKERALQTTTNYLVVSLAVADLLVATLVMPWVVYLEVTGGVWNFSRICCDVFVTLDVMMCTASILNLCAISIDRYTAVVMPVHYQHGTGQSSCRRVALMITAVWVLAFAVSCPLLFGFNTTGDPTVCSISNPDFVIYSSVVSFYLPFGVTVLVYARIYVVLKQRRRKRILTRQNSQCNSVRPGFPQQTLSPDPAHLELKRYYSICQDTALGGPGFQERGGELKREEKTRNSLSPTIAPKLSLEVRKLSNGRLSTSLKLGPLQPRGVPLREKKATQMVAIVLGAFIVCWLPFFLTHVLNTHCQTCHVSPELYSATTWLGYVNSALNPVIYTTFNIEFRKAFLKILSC

SMILES	Ki 5-HT2B [3]	Ki SERT [7]	Ki 5-HT2C [9]	other results
O=C1c2ccccc2C(=O)N1CCCCN1Cc2ccccc2C1 [Compound 3, 2-(4-(Isoindolin-2-yl)butyl)isoindoline-1,3-dione]	MTA	MTA	–	Ki D2 [1]: MTA; Ki H1 [2]: MTA; Ki D3 [4]: MTA; Ki 5-HT1A [5, 10]: MTA; Ki 5-HT2A [6, 10]: MTA; Ki 5-HT7 [8, 10]: MTA
Cl.[O-][S+](CCCN1CCc2ccccc2C1)c1ccc(F)cc1 (centres unmarked) [Compound 9, 2-(3-((4-Fluorophenyl)sulfinyl)propyl)-1,2,3,4-tetrahydroisoquinoline hydrochloride]	–	MTA	MTA	–
O=C(CCCN1CCc2ccccc2C1)c1ccc(O)cc1 [Compound 15, 4-(3,4-Dihydroisoquinolin-2(1H)-yl)-1-(4-hydroxyphenyl)butan-1-one hydrochloride]	–	–	MTA	–
Cl.Fc1ccc2c(c1)CC(CCN1CCc3ccccc3C1)C2 (centres unmarked) [Compound 5, 2-(2-(5-Fluoro-2,3-dihydro-1H-inden-2-yl)ethyl)-1,2,3,4-tetrahydroisoquinoline hydrochloride]	–	–	MTA	–
Cl.Fc1ccc(SCCCN2CCc3ccccc3C2)cc1 [Compound 8, 2-(3-((4-Fluorophenyl)thio)propyl)-1,2,3,4-tetrahydroisoquinoline hydrochloride]	–	MTA	–	–
c1ccc2c(c1)CCN(CCCCc1c[nH]c3ccccc13)C2 [Compound 4, 2-(4-(1H-indol-3-yl)butyl)-1,2,3,4-tetrahydroisoquinoline]	MTA	–	MTA	–
O=C1c2ccccc2C(=O)N1CCCCN1CCC2CCCCC2C1 (centres unmarked) [Compound 2, 2-(4-(Octahydroisoquinolin-2(1H)-yl)butyl)isoindoline-1,3-dione]	–	–	–	decrease in binding affinity to the 5-HT7R ([8]; relative to compound 1): ~40 fold
O=C1c2ccccc2C(=O)N1CCCCN1CCc2ccccc2C1 [Compound 1, 2-(4-(3,4-Dihydroisoquinolin-2(1H)-yl)butyl)isoindoline-1,3-dione]	MTA	MTA	MTA	Ki D2 [1]: MTA; Ki H1 [2]: MTA; Ki 5-HT2A [6]: MTA
O=C(CCCN1CCc2ccccc2C1)c1ccc(F)cc1 [Compound 10, 4-(3,4-Dihydroisoquinolin-2(1H)-yl)-1-(4-fluorophenyl)butan-1-one]	–	MTA	–	increase in binding affinity at the 5-HT1AR ([5]; relative to compound 9): 3 fold
Cl.Fc1ccc(OCCCN2CCc3ccccc3C2)cc1 [Compound 7, 2-(3-(4-Fluorophenoxy)propyl)-1,2,3,4-tetrahydroisoquinoline hydrochloride]	–	MTA	MTA	–

— PMC5060005 (Bioorganic & medicinal chemistry, 2016)
